Reference: ChEMBL document CHEMBL1131702, “Synthesis and biological activity of KCB-328 and its analogues: novel class III antiarrhythmic agents with little reverse frequency dependence” (1999)

Assays:
Cavia porcellus [1] = organism: Cavia porcellus; test: Effect of 1 uM of compound, on action potential duration (APD) was determined in isolated guinea-pig papillary muscles at 1 Hz.; format: functional, Muscle tissue
Cavia porcellus [2] = organism: Cavia porcellus; test: Effect of 1 uM of compound, on action potential duration (APD) was determined in isolated guinea-pig papillary muscles at 3 Hz; format: functional, Muscle tissue
Cavia porcellus [3] = organism: Cavia porcellus; test: Effective refractory period of contractile response in isolated guinea-pig papillary muscles at 1 Hz and 1 uM.; format: functional, Muscle tissue
Cavia porcellus [4] = organism: Cavia porcellus; test: Effective refractory period of contractile response in isolated guinea-pig papillary muscles at 3 Hz and 1 uM.; format: functional, Muscle tissue
[5] = Ratio of APD prolongation was measured as percent change at 3 Hz/1 Hz; format: functional
[6] = Ratio of ERPc prolongation was measured as percent change at 3 Hz/1 Hz; format: functional

In the case of `COc1ccc(CCN(C)CCOc2ccc(NS(C)(=O)=O)cc2N)cc1OC`, the “Delta APD90” value (Cavia porcellus [1]) is reported as 33.3%, the “Delta APD90” value (Cavia porcellus [2]) is reported as 28.6% and the “Delta ERPc” value (Cavia porcellus [3]) is reported as 31%. For the same compound, the “Delta ERPc” value (Cavia porcellus [4]) was 32.6%, the Ratio [5] was 86 and the Ratio [6] was 105.

For `COc1ccc(CCN(C)CCOc2ccc(NS(C)(=O)=O)cc2-n2cccc2)cc1OC`, the “Delta APD90” value (Cavia porcellus [1]) was 26.4%, the “Delta APD90” value (Cavia porcellus [2]) was 26.2% and the “Delta ERPc” value (Cavia porcellus [3]) was 31.2%. For the same compound, the “Delta ERPc” value (Cavia porcellus [4]) was 40.1%, the Ratio [5] was 99 and the Ratio [6] was 128.

In the case of `COc1cc(C)c(CCN(C)CCOc2ccc(NS(C)(=O)=O)cc2-n2cccc2)cc1OC`, the “Delta ERPc” value (Cavia porcellus [3]) is reported as 32.1%, the “Delta ERPc” value (Cavia porcellus [4]) is reported as 26.3% and the Ratio [6] is reported as 81.

For `COc1ccc(CCN(C)CCOc2ccc(NS(C)(=O)=O)cc2OCc2ccccc2)cc1OC`, the “Delta ERPc” value (Cavia porcellus [3]) was 26.3%, the “Delta ERPc” value (Cavia porcellus [4]) was 30% and the Ratio [6] was 114.

In the case of `COc1ccc(CCN(C)CCOc2ccc(NS(C)(=O)=O)cc2Nc2nccs2)cc1OC`, the “Delta ERPc” value (Cavia porcellus [3]) is reported as 43.4%, the “Delta ERPc” value (Cavia porcellus [4]) is reported as 36.8% and the Ratio [6] is reported as 84.

In the case of `COc1ccc(CCN(C)CCOc2ccc(NS(C)(=O)=O)cc2Cl)cc1OC`, the “Delta ERPc” value (Cavia porcellus [3]) is reported as 32.2%, the “Delta ERPc” value (Cavia porcellus [4]) is reported as 30.8% and the Ratio [6] is reported as 95.

In the case of `COc1cc(CCN(C)CCOc2ccc(NS(C)(=O)=O)cc2Cl)c([N+](=O)[O-])cc1OC`, the “Delta ERPc” value (Cavia porcellus [3]) is reported as 29.4%, the “Delta ERPc” value (Cavia porcellus [4]) is reported as 36.2% and the Ratio [6] is reported as 123.

In the case of `COc1ccc(CCN(C)CCOc2ccc(NS(C)(=O)=O)cc2F)cc1OC`, the “Delta ERPc” value (Cavia porcellus [3]) is reported as 34.5%, the “Delta ERPc” value (Cavia porcellus [4]) is reported as 25.9% and the Ratio [6] is reported as 75.

In the case of `CN(CCOc1ccc(NS(C)(=O)=O)cc1)CCc1ccc(NS(C)(=O)=O)cc1` [DOFETILIDE], the “Delta APD90” value (Cavia porcellus [1]) is reported as 45.6%, the “Delta APD90” value (Cavia porcellus [2]) is reported as 26.8% and the “Delta ERPc” value (Cavia porcellus [3]) is reported as 49.9%. For the same compound, the “Delta ERPc” value (Cavia porcellus [4]) was 30.8%, the Ratio [5] was 59 and the Ratio [6] was 65.

In the case of `COc1cc(N)c(CCN(C)CCOc2ccc(NS(C)(=O)=O)cc2-n2cccc2)cc1OC`, the “Delta ERPc” value (Cavia porcellus [3]) is reported as 39.4%, the “Delta ERPc” value (Cavia porcellus [4]) is reported as 24.7% and the Ratio [6] is reported as 62.

With `COc1ccc(CCN(C)CCOc2ccc(NS(C)(=O)=O)cc2I)cc1OC` the “Delta ERPc” value (Cavia porcellus [3]) was 28.9%, the “Delta ERPc” value (Cavia porcellus [4]) was 21.2% and the Ratio [6] was 73.

With `COc1ccc(CCN(C)CCOc2ccc(NS(C)(=O)=O)cc2)cc1OC` the “Delta ERPc” value (Cavia porcellus [3]) was 60.1%, the “Delta ERPc” value (Cavia porcellus [4]) was 28.9% and the Ratio [6] was 48.

For `COc1ccc(CCN(C)CCOc2ccc(NS(C)(=O)=O)cc2C)cc1OC`, the “Delta ERPc” value (Cavia porcellus [3]) was 28.9%, the “Delta ERPc” value (Cavia porcellus [4]) was 27.2% and the Ratio [6] was 94.

For `Cc1cccc(CCN2CCC(C(=O)c3ccc(NS(C)(=O)=O)cc3)CC2)n1`, the “Delta ERPc” value (Cavia porcellus [3]) was 41.8%, the “Delta ERPc” value (Cavia porcellus [4]) was 30.2% and the Ratio [6] was 71.

For `COc1cc(Cl)c(CCN(C)CCOc2ccc(NS(C)(=O)=O)cc2Cl)cc1OC`, the “Delta ERPc” value (Cavia porcellus [3]) was 22.4%, the “Delta ERPc” value (Cavia porcellus [4]) was 17.8% and the Ratio [6] was 79.

With `COc1cc(C)c(CCN(C)CCOc2ccc(NS(C)(=O)=O)cc2Cl)cc1OC` the “Delta APD90” value (Cavia porcellus [1]) was 37.8%, the “Delta APD90” value (Cavia porcellus [2]) was 22.2% and the “Delta ERPc” value (Cavia porcellus [3]) was 28%. The “Delta ERPc” value (Cavia porcellus [4]) was 33.1%, the Ratio [5] was 82 and the Ratio [6] was 118.

With `COc1ccc(CCN(C)CCOc2ccc(NS(C)(=O)=O)cc2[N+](=O)[O-])cc1OC` the “Delta ERPc” value (Cavia porcellus [3]) was 33.3%, the “Delta ERPc” value (Cavia porcellus [4]) was 25% and the Ratio [6] was 75.

In the case of `COc1ccc(CCN(C)CCOc2ccc(NS(C)(=O)=O)cc2NC(C)=O)cc1OC`, the “Delta ERPc” value (Cavia porcellus [3]) is reported as 39.3%, the “Delta ERPc” value (Cavia porcellus [4]) is reported as 27.7% and the Ratio [6] is reported as 70.

In the case of `COc1cc(N)c(CCN(C)CCOc2ccc(NS(C)(=O)=O)cc2Cl)cc1OC`, the “Delta ERPc” value (Cavia porcellus [3]) is reported as 27.5%, the “Delta ERPc” value (Cavia porcellus [4]) is reported as 34.7% and the Ratio [6] is reported as 126.

In the case of `COc1ccc(CCN(C)CCOc2ccc(NS(C)(=O)=O)cc2Br)cc1OC`, the “Delta ERPc” value (Cavia porcellus [3]) is reported as 32.8%, the “Delta ERPc” value (Cavia porcellus [4]) is reported as 25.2% and the Ratio [6] is reported as 76.
